Laboratory results reported in patent publication US6770597B2, “Benzohydrazide derivatives as herbicides and desiccant compositions containing them” (Ishihara Sangyo Kaisha, Ltd., priority 2002, dated 2004).

Legend:
Format in all cases: in vivo
[1] = tested on: johnsongrass (Sorghum halepense, SORHA); test: Greenhouse herbicide screen, post-emerge application, phytotoxicity rating; conditions: POST emergent, 14 days after application, scale 0-100
Outline: (§1)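 Sown 1 d (pre) or 8–21 d (post) ahead; sprayed 15–1000 g ai/ha in acetone, 187 l/ha; nozzle 40–45 cm above canopy/soil; scored 0–100 at day 14.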

[2] = tested on: common ragweed (Ambrosia artemisiifolia L., AMBEL); test: as above; conditions: POST emergent, 14 days after application, scale 0-100
Outline: as §1

[3] = tested on: green foxtail (Setaria viridis, SETVI); test: as above; conditions: POST emergent, 14 days after application, scale 0-100
Outline: as §1

[4] = tested on: sicklepod (Cassia obtusifolia, CASOB); test: as above; conditions: POST emergent, 14 days after application, scale 0-100
Outline: as §1

[5] = tested on: ivyleaf morningglory (Ipomoea hederacea, IPOHE); test: as above; conditions: POST emergent, 14 days after application, scale 0-100
Outline: as §1

[6] = tested on: velvetleaf (Abutilon theophrasti, ABUTH); test: as above; conditions: POST emergent, 14 days after application, scale 0-100
Outline: as §1

[7] = tested on: large crabgrass (Digitaria sanguinalis, DIGSA); test: as above; conditions: POST emergent, 14 days after application, scale 0-100
Outline: as §1

[8] = tested on: lambsquarters (Chenopodium album, CHEAL); test: as above; conditions: POST emergent, 14 days after application, scale 0-100
Outline: as §1

[9] = tested on: redroot pigweed (Amaranthus retrofiexus, AMARE); test: as above; conditions: POST emergent, 14 days after application
Outline: as §1

[10] = tested on: barnyardgrass (Echinochloa crus-galli, ECHCG); test: as above; conditions: POST emergent, 14 days after application, scale 0-100
Outline: as §1

[11] = tested on: cocklebur (Xanthium strumarium, XANST); test: as above; conditions: POST emergent, 14 days after application, scale 0-100
Outline: as §1

[12] = tested on: field corn (Zea mays L., var. Dekalb 535, CORN); test: Greenhouse herbicide screen, pre-emerge application, crop damage rating; conditions: PRE emergent, 14 days after application, rating scale 0-100
Excerpt: (§2) A standard greenhouse herbicide activity screening system was used to evaluate the herbicidal efficacy and crop safety of these test compounds. Seven broadleaf weed species including redroot pigweed (Amaranthus retrofiexus, AMARE), velvetleaf (Abutilon theophrasti, ABUTH), sicklepod (Cassia obtusifolia, CASOB), ivyleaf morningglory (Ipomoea hederacea, IPOHE), lambsquarters (Chenopodium album, CHEAL), common ragweed (Ambrosia artemisiifolia L., AMBEL), and cocklebur (Xanthium strumarium, XANST) were used as test species. Four grass weed species including green foxtail (Setaria viridis, SETVI), barnyardgrass (Echinochloa crus-galli, ECHCG), johnsongrass (Sorghum halepense, SORHA), and large crabgrass (Digitaria sanguinalis, DIGSA) were also used. In addition, four crop species, field corn (Zea mays L., var. Dekalb 535, CORN), soybean (Glycine max L., var. Pella 86, SOY), upland rice (Oryza sp., var.Cocodrie, RICE) and wheat (Triticum aestivum L.) were included.
(§3) All plants were grown in 10 cm square plastic pots which were filled with a sandy loam soil mix. For pre-emerge tests, seeds were planted one day prior to application of the test compounds. For post-emerge tests, seeds were planted 8-21 days prior to the test to allow emergence and good foliage development prior to application of the test substances. At the time of the post-emerge application, plants of all species were usually at the 2-3 leaf stage of development.
(§4) All test compounds were dissolved in acetone and applied to the test units in a volume of 187 l/ha. Test materials were applied at rates ranging from 15 g ai/ha to 1000 g ai/ha using a track sprayer equipped with a TJ8001E even flow flat fan spray nozzle. Plants were arranged on a shelf so that the top of the canopy (post-emerge) or top of the soil surface (pre-emerge) was 40-45 cm below the nozzle. Pressurized air was used to force the test solution through the nozzle as it was mechanically advanced (via electrically driven chain drive) over the top of all test plants/pots. This application simulates a typical commercial field herbicide application.
(§5) Pre-emergence tests were top watered immediately after treatment to incorporate the test materials, then routinely top-watered for normal growth. Post-emerge test units were always bottom-watered.
(§6) At 14 days after application of the test materials, phytotoxicity ratings were recorded. A rating scale of 0-100 was used as previously described in Research Methods in Weed Science, 2nd edition, B. Truelove, Ed., Southern Weed Science Society, Auburn University, Auburn, Ala., 1977. Briefly, “0” corresponds to no damage and “100” corresponds to complete death of all plants in the test unit. This scale was used both to determine efficacy against weed species and damage to crop species. Herbicide activity data for various compounds of this invention, which are shown by compound No. in Tables 1-12, are shown in Tables 13 and 14.

[13] = tested on: upland rice (Oryza sp., var.Cocodrie, RICE); test: as above; conditions: PRE emergent, 14 days after application, rating scale 0-100
Excerpt: as §2, §3, §4, §5, §6

[14] = tested on: field corn (Zea mays L., var. Dekalb 535, CORN); test: Greenhouse herbicide screen, post-emerge application, crop damage rating; conditions: POST emergent, 14 days after application, scale 0-100
Excerpt: as §2, §3, §4, §5, §6

[15] = tested on: upland rice (Oryza sp., var.Cocodrie, RICE); test: as above; conditions: POST emergent, 14 days after application, scale 0-100
Excerpt: as §2, §3, §4, §5, §6

[16] = tested on: johnsongrass (Sorghum halepense, SORHA); test: Greenhouse herbicide screen, pre-emerge application, phytotoxicity rating; conditions: PRE emergent, 14 days after application, rating scale 0-100
Outline: as §1

[17] = tested on: common ragweed (Ambrosia artemisiifolia L., AMBEL); test: as above; conditions: PRE emergent, 14 days after application, rating scale 0-100
Outline: as §1

[18] = tested on: green foxtail (Setaria viridis, SETVI); test: as above; conditions: PRE emergent, 14 days after application, rating scale 0-100
Outline: as §1

[19] = tested on: sicklepod (Cassia obtusifolia, CASOB); test: as above; conditions: PRE emergent, 14 days after application, rating scale 0-100
Outline: as §1

[20] = tested on: ivyleaf morningglory (Ipomoea hederacea, IPOHE); test: as above; conditions: PRE emergent, 14 days after application, rating scale 0-100
Outline: as §1

[21] = tested on: velvetleaf (Abutilon theophrasti, ABUTH); test: as above; conditions: PRE emergent, 14 days after application, rating scale 0-100
Outline: as §1

[22] = tested on: large crabgrass (Digitaria sanguinalis, DIGSA); test: as above; conditions: PRE emergent, 14 days after application, rating scale 0-100
Outline: as §1

[23] = tested on: lambsquarters (Chenopodium album, CHEAL); test: as above; conditions: PRE emergent, 14 days after application, rating scale 0-100
Outline: as §1

[24] = tested on: redroot pigweed (Amaranthus retrofiexus, AMARE); test: as above; conditions: PRE emergent, 14 days after application, rating scale 0-100
Outline: as §1

[25] = tested on: barnyardgrass (Echinochloa crus-galli, ECHCG); test: as above; conditions: PRE emergent, 14 days after application, rating scale 0-100
Outline: as §1

[26] = tested on: cocklebur (Xanthium strumarium, XANST); test: as above; conditions: PRE emergent, 14 days after application, rating scale 0-100
Outline: as §1

SMILES: CC(=O)OC(=NN(C)C)c1cc(-n2c(=O)cc(C(F)(F)F)n(C)c2=O)ccc1Cl [Compound 4-4]
- phytotoxicity rating SORHA ([1]; 63 g ai/ha): 60
- phytotoxicity rating SORHA ([1]; 250 g ai/ha): 90
- phytotoxicity rating AMBEL ([2]; 63 g ai/ha): 75
- phytotoxicity rating AMBEL ([2]; 250 g ai/ha): 100
- phytotoxicity rating SETVI ([3]; 63 g ai/ha): 50
- phytotoxicity rating SETVI ([3]; 250 g ai/ha): 90
- phytotoxicity rating CASOB ([4]; 63 g ai/ha): 65
- phytotoxicity rating CASOB ([4]; 250 g ai/ha): 98
- phytotoxicity rating IPOHE ([5]; 63 g ai/ha): 100
- phytotoxicity rating IPOHE ([5]; 250 g ai/ha): 100
- phytotoxicity rating ABUTH ([6]; 63 g ai/ha): 100
- phytotoxicity rating ABUTH ([6]; 250 g ai/ha): 100
- phytotoxicity rating DIGSA ([7]; 63 g ai/ha): 98
- phytotoxicity rating DIGSA ([7]; 250 g ai/ha): 100
- phytotoxicity rating CHEAL ([8]; 63 g ai/ha): 100
- phytotoxicity rating CHEAL ([8]; 250 g ai/ha): 100
- phytotoxicity rating AMARE ([9]; 63 g ai/ha, scale 0-100 (0 no damage, 100 complete death)): 100
- phytotoxicity rating AMARE ([9]; 250 g ai/ha, scale 0-100): 100
- phytotoxicity rating ECHCO ([10]; 63 g ai/ha): 30
- phytotoxicity rating ECHCO ([10]; 250 g ai/ha): 90
- phytotoxicity rating XANST ([11]; 63 g ai/ha): 0
- phytotoxicity rating XANST ([11]; 250 g ai/ha): 60
- crop damage rating CORN ([12]; 63 g ai/ha): 25
- crop damage rating CORN ([12]; 250 g ai/ha): 90
- crop damage rating RICE ([13]; 63 g ai/ha): 10
- crop damage rating RICE ([13]; 250 g ai/ha): 55
- crop damage rating CORN ([14]; 63 g ai/ha): 25
- crop damage rating CORN ([14]; 250 g ai/ha): 90
- crop damage rating RICE ([15]; 63 g ai/ha): 10
- crop damage rating RICE ([15]; 250 g ai/ha): 55
- phytotoxicity rating SORHA ([16]; 63 g ai/ha): 60
- phytotoxicity rating SORHA ([16]; 250 g ai/ha): 90
- phytotoxicity rating AMBEL ([17]; 63 g ai/ha): 75
- phytotoxicity rating AMBEL ([17]; 250 g ai/ha): 100
- phytotoxicity rating SETVI ([18]; 63 g ai/ha): 50
- phytotoxicity rating SETVI ([18]; 250 g ai/ha): 90
- phytotoxicity rating CASOB ([19]; 63 g ai/ha): 65
- phytotoxicity rating CASOB ([19]; 250 g ai/ha): 98
- phytotoxicity rating IPOHE ([20]; 63 g ai/ha): 100
- phytotoxicity rating IPOHE ([20]; 250 g ai/ha): 100
- phytotoxicity rating ABUTH ([21]; 63 g ai/ha): 100
- phytotoxicity rating ABUTH ([21]; 250 g ai/ha): 100
- phytotoxicity rating DIGSA ([22]; 63 g ai/ha): 98
- phytotoxicity rating DIGSA ([22]; 250 g ai/ha): 100
- phytotoxicity rating CHEAL ([23]; 63 g ai/ha): 100
- phytotoxicity rating CHEAL ([23]; 250 g ai/ha): 100
- phytotoxicity rating AMARE ([24]; 63 g ai/ha): 100
- phytotoxicity rating AMARE ([24]; 250 g ai/ha): 100
- phytotoxicity rating ECHCG ([25]; 63 g ai/ha): 30
- phytotoxicity rating ECHCG ([25]; 250 g ai/ha): 90
- phytotoxicity rating XANST ([26]; 63 g ai/ha): 0
- phytotoxicity rating XANST ([26]; 250 g ai/ha): 60
